In patent US20250152566A1 (priority 2023, published 2025):
“Also recorded” adds a separate entry of the source.

What was measured:
[1] = test system: LEMS patients; conditions: cited from earlier work
[2] = test system: MS patients; conditions: described in the literature; cited from earlier work
[3] = test system: fatigue symptomatology after SARS-CoV-2 infection; assay: Patients 2.1 to 2.5: Bell score and cumulative sleep time in 24 h with and without Amifampridine; type: in vivo, human; conditions: for Bell score, long term: long-term medication, daily dose 20 mg to 25 mg, 5 mg each at an interval of 4 hours
Description: (§1) The Bell-score (or scale) is a measure of the impediment in the case of ME & CFS. It is also suitable for long COVID patients. The Bell scale is individual because each patient has a different stress tolerance and suffering from severe symptoms at rest can be relatively different. • 100 No symptoms at rest; no symptoms with physical stress; a normal overall activity level; able to work full-time without any difficulties. • 90 No symptoms at rest; mild symptoms with physical and mental stress; a normal overall activity level; able to work full-time without any difficulties. • 80 Mild symptoms at rest; the symptoms intensify due to stress; a slight performance limitation noticeable only with activities, which are strenuous; able to work full-time in jobs, which require exertion of force, with difficulties. • 70 Mild symptoms at rest; significant limitations noticeable in the daily activities; the functional state is a total of about 90% of the norm—with the exception of activities, which require an exertion of force; able to work full-time with difficulties. • 60 Mild symptoms at rest; significant limitations in the daily activities; the functional state is a total of about 70%-90% of the norm; unable to work a full-time job if physical work is required there; however, able to work full-time if it is light work and the hours of work can be handled flexibly. • 50 Moderate symptoms at rest; moderate to severe symptoms in response to physical stress or activity; the functional state is reduced to 70% of the norm; unable to perform strenuous work, but able to perform light work or desk work for 4-5 hours daily, whereby rest periods are required. • 40 Moderate symptoms at rest; moderate to severe symptoms in response to stress or activity; the functional state is reduced to 50%-70% of the norm; unable to perform strenuous work, but able to perform light work or desk work for 3-4 hours daily, whereby rest periods are required. • 30 Moderate to severe symptoms at rest; severe symptoms in response to any stress or activity; the functional state is reduced to 50% of the norm; generally housebound; unable to perform strenuous work, but able to perform light work or desk work for 2-3 hours daily, whereby rest periods are required. • 20 Moderate to severe symptoms at rest; severe symptoms in response to any stress or activity; the functional state is reduced to 30%-50% of the norm, except for rare exceptions, unable to leave the house; bedridden for the majority of the day; unable to concentrate for more than one hour per day. • 10 Severe symptoms at rest; bedridden most of the time; leaving the house is not possible; significant cognitive symptoms, which make it impossible to concentrate. • 0 Constant severe symptoms; always bedridden; unable to perform the simplest care measures.
The following dosages of patients 2.1 to 2.5 and the changed Bell score values as well as the need for sleep in hours are illustrated in FIGS. 1 and 2 (FIG. 1 Bell-score with and without Amifampridine, patients 2.1 to 2.5, FIG. 2: cumulative sleep time in 24 h).
In the case of pat. 2.1, a psychotherapist without internal or neurological preexisting conditions, fluctuating fatigue symptomatology with a Bell score between 20 and 40 as well as increased need for sleep with 12 hours/24 h occurred after SARS-CoV-2 infection in May of 2022. After taking 5 mg of Amifampridine once, there was complete convalescence with a Bell score of 100, the need for sleep reduced to 7 hours/24 h.
After withdrawal trials (three days no Amifampridine) with recurrent fatigue, a long-term medication with a daily dose of 20 mg to 25 mg of 5 mg each at an interval of 4 hours occurred, whereby the Bell score is permanently from 90 to 100. This Bell score value can already be maintained for three quarters of a year. Taken from morning to night before going to sleep.
In the case of pat. […]

[4] = test system: fatigue symptomatology after COVID infection; assay: Off-label therapy case descriptions (cases 1 to 3) of fatigue symptomatology after COVID infection; type: in vivo, human
Method: (§2) Pyridine-3,4-diamine Amifampridine (formulation as finished drug) was administered in the below-mentioned application examples. As part of the double-blind study, capsules that look the same with Amifampridine or placebo were prepared blind by a pharmacy, whereby only the pharmacy knew which capsules contained active ingredient or placebo.
The following laboratory and ECG controls for detecting substance-associated complications were inconspicuous.
In case 3, a patient is described, who suffered from fatigue symptomatology with a need for sleep of up to 2×9 hours per day, after being infected with COVID twice.

[5] = test system: fatigue after SARS-CoV-2 infection; assay: Double-blind withdrawal trial (verum/placebo, 3 days each) in pat. 2.1 and 2.2; type: in vivo, human; conditions: at start of the double-blind trial, already on Amifampridine (4 times 5 mg per day)
Method: as §2
In the case of pat. 2.1 and 2.2, a long-term medication with 20 mg of Amifampridine each per day were required for reconvalescence and thus offered prerequisites for a double-blind withdrawal trial for 3 days each.
Pat. 2.1 with verum on days 1-3, followed by placebo on days 4-6:
Pat. (pat. 2.1) with Bell score 90 already started with Amifampridine, as described above, and continued this with blister with […] each day, one drawer with capsules for 3 days with 4 times 5 mg of Amifampridine each. The dosage for 3 days each was placebo with 4 times placebo capsules each for patient 1 and 2 (verum and placebo).
Pat. 2.1: verum on days 1-3, followed by placebo on days 4-6: reduction of the Bell score to minimally 30 in the placebo phase, increased sleep time to 10.5 hours (FIG. 3: pat. 2.1, Bell score (line with squares with side lines of the squares parallel and perpendicular to the main line; sleep time/24 h (line with smaller squares, tips of squares point upwards/downwards as well as to the right and left). […]

[6] = test system: fatigue symptomatology in post-COVID syndrome (PCS); assay: Further study (case series, pat. 1 to 5): Bell score and need for sleep in post-COVID syndrome under Amifampridine; type: in vivo, human
Description: as §1
A further study was performed on a patient group. A reduced fatigue symptomatology was determined in this study as well in the case of post-COVID syndrome under Amifampridine.
The prevalence of a post-COVID syndrome (PCS) is 10-15% after SARS-CoV-2 infection, a large variety of functional symptoms appear in addition to specific organ diseases, predominantly a fatigue symptomatology. The latter is characterized by persistent tiredness, weakness, cognitive deficits as well as increased need for sleep. […] The Bell score, which focusses on the limitation of the vigilance, physical endurance and job, was used for the evaluation. • In the case of pat. 1 of the further study, a previous Zn. EBV infection is known, otherwise no internal or neurological preexisting conditions. Fluctuating fatigue symptomatology after SARS-CoV-2 infection in May of 2022 with a Bell score between 20 and 40, increased need for sleep with 12 hours/24 h. After taking 5 mg of Amifampridine three times within 24 h (h: hours), there was complete convalescence with a Bell score of 100, the need for sleep reduced to 7 hours/24 h. Withdrawal trials ended in a fatigue again. • In the case of pat. […]

[7] = pat. 2.5 (LEMS), 60 mg, later 70 mg per day (3 times 20 mg, optionally additional 5 mg)
[8] = pat. 2.5 (LEMS), initial administration of 3×5 mg
[9] = pat. 5 (LEMS), 5 mg three or four times as daily dose

For Amifampridine Phosphate, the “coincident fatigue with LEMS” value ([1]; as phosphates, 20 to 80 mg as daily doses, J Clin Neuromuscul Dis. 2019) is listed as “Improvement of a coincident fatigue”.
For Nc1ccncc1 [Fampridine], the “accompanying fatigue symptomatology in MS patients” value [2] is listed as “improvement of an accompanying fatigue symptomatology; also recorded: favorable effects”.
For Nc1ccncc1N [Amifampridine, Pyridine-3,4-diamine], the need for sleep ([3]; pat. 2.1, after taking 5 mg once, before 12) was 7 hours/24 h, the Bell score ([3]; pat. 2.1, after taking 5 mg once, before 20 to 40) was 100 and the “Bell score, long term” value ([3]; pat. 2.1, held for three quarters of a year) was 90 to 100. For the same molecule, the “duration of the effect” value ([3]; pat. 2.2, after taking 5 mg) was “about 36 hours”, the need for sleep ([3]; pat. 2.2, after taking 5 mg, before 11-12 hours/24 h) was 7 to 9 h and the Bell score ([3]; pat. 2.2, after taking 5 mg, before 40) was 80. The “Bell score, long term” value ([3]; pat. 2.2, past month) was 90 to 100, the vigilance ([3]; pat. 2.3, after 5 mg) was “unlimited vigilance” and the need for sleep ([3]; pat. 2.3, after 5 mg, before 12) was 7.5 hours/24 h. The Bell score ([3]; pat. 2.3, after 5 mg, before 40) was 100, the “Bell score with regard to fatigue” value [3, 7] was 70 to 80 and the “Bell score with regard to the muscular deficits” value [3, 7] was “approx. 20”. The fatigue [3, 8] was “the fatigue ceased”, the muscular endurance [3, 8] was “improved muscular endurance” and the Bell score ([3]; pat. 2.5 (LEMS), initial administration of 3×5 mg, before 10) was 80. For the same molecule, the need for sleep ([3]; pat. 2.5 (LEMS), initial administration of 3×5 mg, before 16-18) was 8-9 hours/24 h, the Bell score ([3]; patient 2.4 (post-COVID myocarditis), after 5 mg, before 20) was 50 and the need for sleep ([3]; patient 2.4, after 5 mg, before 12-14) was 8 to 10 hours/24 h. For the same molecule, the “co-indicated / coincident fatigue of LEMS patients” value ([1]; LEMS patients) was “improvement of a co-indicated fatigue”, the muscular deficits ([4]; case 1) was “immediate improvement of the muscular deficits” and the “serious fatigue symptomatology existing since the COVID infection” value ([4]; case 1, need for sleep or rest up to 20 hours per day before) was “sudden improvement”. The “laboratory and ECG controls for detecting substance-associated complications” value ([4]; case 2) was “inconspicuous”, the ability to concentrate ([4]; case 2, 5 mg of Amifampridine) was “complete restitution of the ability to concentrate” and the assignable side effects ([4]; case 2, 5 mg of Amifampridine) was “Slight perioral paresthesias”. For the same molecule, the fatigue symptomatology ([4]; case 2, 5 mg of Amifampridine) was “complete improvement of the fatigue symptomatology”, the existing fatigue ([4]; case 2, daily dose of 3×5 mg) was “ceases completely” and the ability to concentrate ([4]; case 3, 5 mg of Amifampridine) was “sudden improvement of the ability to concentrate”. For the same molecule, the side effects ([4]; case 3, 5 mg of Amifampridine) was “Transient perioral paresthesias with very low intensity”, the “need for sleep and rest” value ([4]; case 3, 5 mg of Amifampridine, before up to 2×9 hours per day) was “physiological need for sleep and rest” and the Bell score [5] was 90. The need for sleep ([6]; pat. 1, after 5 mg three times within 24 h, before 12) was 7 hours/24 h, the Bell score ([6]; pat. 1, after 5 mg three times within 24 h, before 20 to 40) was 100 and the vigilance ([6]; pat. 2, after 5 mg three times) was “unlimited vigilance”. The need for sleep ([6]; pat. 2, after 5 mg three times, before 12) was 7.5 hours/24 h, the Bell score ([6]; pat. 2, after 5 mg three times, before 40) was 100 and the “duration of the effect” value ([6]; pat. 3, after taking 5 mg) was “about 36 hours”. For the same molecule, the need for sleep ([6]; pat. 3, after taking 5 mg, before 11 to 12 hours/24 h) was 7 to 9 h, the Bell score ([6]; pat. 3, after taking 5 mg, before 40) was 100 and the Bell score ([6]; pat. 4 (post-COVID myocarditis), 5 mg three times within 24 h, before 20) was 50. The need for sleep ([6]; pat. 4, 5 mg three times within 24 h, before 12 to 14) was 8 to 10 hours/24 h, the fatigue [6, 9] was “the fatigue ceased” and the muscular endurance [6, 9] was “improved muscular endurance”. The need for sleep ([6]; pat. 5 (LEMS), 5 mg three or four times as daily dose, before 16 to 18) was 8-9 hours/24 h.
